Measured values taken from patent US8318447B2, “Use of bitter taste receptor to screen for compounds that offset the bitter taste of chlorogenic lactone containing coffee compositions” (Senomyx Inc., priority 2005, dated 2012).

Columns and labels:
Format in all cases: cell-based
[1] = target: T1, hT2R54 (Homo sapiens, UniProt P59534); assay: calcium imaging of HEK293 cells transfected with hT2R54 and chimeric G protein G16gust44; details: for response of HEK-293 cells that express hT2R54: 2 mM concentrations, FIG. 3; for response of hT2R54 (increase in intracellular calcium concentration): different concentrations, FIG. 2 / FIG. 4
T1 construct: expressed in transfected cells; host or cells: human embryonic kidney (HEK293) cells, transient transfection
T1 sequence (P59534 18-338): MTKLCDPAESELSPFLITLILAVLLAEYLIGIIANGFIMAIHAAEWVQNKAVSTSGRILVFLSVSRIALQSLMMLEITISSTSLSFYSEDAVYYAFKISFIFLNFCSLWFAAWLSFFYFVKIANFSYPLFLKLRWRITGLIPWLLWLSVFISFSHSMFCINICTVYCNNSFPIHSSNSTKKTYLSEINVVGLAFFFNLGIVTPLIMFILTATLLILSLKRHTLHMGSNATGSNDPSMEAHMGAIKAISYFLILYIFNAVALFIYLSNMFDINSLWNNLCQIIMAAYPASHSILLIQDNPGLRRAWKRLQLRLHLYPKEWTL
Description: (§1) More particularly, the present inventors transfected HEK293 cells with a particular hT2R together with a chimeric G protein (G 16gust44) which comprises the Gα16 G protein sequence modified by the replacement of carboxy-44 amino acid residues with those of gustducin, and recorded responses of these cells to specific bitter ligands by calcium imaging methods.
(§2) Activation of these receptors by 3CoQAL is measured in a cell-based assay detecting changes in intracellular calcium concentration. In brief, human embryonic kidney cells are seeded in 48-well tissue culture plates. 24 hours later, the cells are transiently transfected with plasmid containing either the hT2R8, hT2R14 or hT2R54 nucleic acid sequence, and plasmid containing a chimeric G protein (G16gust44). Another 24 hours later, the cells are incubated with a fluorescent dye specific for calcium (Fluo-4 or Fura-2; Molecular Probes) that provides a fast, simple and reliable fluorescence-based method for detecting changes in calcium concentration inside the cell. Activation of the T2Rs elicits a signaling cascade leading to the activation of PLC and a subsequent increase in intracellular calcium concentration. This increase in calcium concentration changes the fluorescence properties of the calcium dye inside the cells. These changes are monitored using fluorescence microscopy and a specific design software (Imaging Workbench, Axon).
as §2, with “this receptor” for “these receptors”, “3CQAL and 4CQAL” for “3CoQAL”
as §2, with “this receptor” for “these receptors”, “4FQAL” for “3CoQAL”, “brief” for “brief,”

[2] = target: T2, hT2R8 (Homo sapiens, UniProt Q9NYW2); assay: calcium imaging of HEK293 cells transfected with hT2R8 and chimeric G protein G16gust44; details: for response of HEK-293 cells that express hT2R8: 2 mM concentrations, FIG. 3; for response of hT2R8 (increase in intracellular calcium concentration): different concentrations, FIG. 2 / FIG. 4
T2 construct: expressed in transfected cells; host or cells: human embryonic kidney (HEK293) cells, transient transfection
T2 sequence (Q9NYW2 1-309): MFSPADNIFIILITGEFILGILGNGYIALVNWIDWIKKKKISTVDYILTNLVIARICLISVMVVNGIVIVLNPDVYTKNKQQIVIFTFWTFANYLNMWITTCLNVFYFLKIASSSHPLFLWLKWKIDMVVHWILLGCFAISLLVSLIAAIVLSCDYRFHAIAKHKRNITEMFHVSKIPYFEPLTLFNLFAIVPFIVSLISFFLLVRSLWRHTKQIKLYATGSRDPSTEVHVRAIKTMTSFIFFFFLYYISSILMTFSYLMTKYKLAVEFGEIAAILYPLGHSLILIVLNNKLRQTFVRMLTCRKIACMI
Description: as §1, §2
as §2, with “this receptor” for “these receptors”, “3CQAL and 4CQAL” for “3CoQAL”
as §2, with “this receptor” for “these receptors”, “4FQAL” for “3CoQAL”, “brief” for “brief,”

[3] = target: T3, hT2R14 (Homo sapiens, UniProt Q9NYV8); assay: calcium imaging of HEK293 cells transfected with hT2R14 and chimeric G protein G16gust44; details: for response of HEK-293 cells that express hT2R14: 2 mM concentrations, FIG. 3; for response of hT2R14 (increase in intracellular calcium concentration): different concentrations, FIG. 2
T3 construct: expressed in transfected cells; host or cells: human embryonic kidney (HEK293) cells, transient transfection
T3 sequence (Q9NYV8 1-317): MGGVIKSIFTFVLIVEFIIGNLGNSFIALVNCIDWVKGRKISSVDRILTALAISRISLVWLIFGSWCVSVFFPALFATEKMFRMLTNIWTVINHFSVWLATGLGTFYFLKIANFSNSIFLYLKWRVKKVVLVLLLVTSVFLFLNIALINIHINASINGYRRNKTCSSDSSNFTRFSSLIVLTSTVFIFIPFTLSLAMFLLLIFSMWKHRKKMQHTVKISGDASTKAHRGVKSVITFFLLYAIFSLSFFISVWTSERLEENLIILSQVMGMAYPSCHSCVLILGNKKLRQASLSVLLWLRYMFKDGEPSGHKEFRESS
Description: as §1, §2
as §2, with “this receptor” for “these receptors”, “3CQAL and 4CQAL” for “3CoQAL”
as §2, with “this receptor” for “these receptors”, “4FQAL” for “3CoQAL”, “brief” for “brief,”

## O=C(/C=C/c1ccc(O)c(O)c1)O[C@@H]1C[C@]2(O)C[C@@H](OC2=O)[C@@H]1O [3CQAL]
[1]
  response of HEK-293 cells that express hT2R54: specifically respond
[2]
  response of HEK-293 cells that express hT2R8: specifically respond
[3]
  response of HEK-293 cells that express hT2R14: specifically respond

## COc1cc(/C=C/C(=O)O[C@@H]2[C@H](O)C[C@]3(O)C[C@H]2OC3=O)ccc1O [4FQAL]
[1]
  response of hT2R54 (increase in intracellular calcium concentration): responded specifically
[2]
  response of hT2R8 (increase in intracellular calcium concentration): responded specifically
[3]
  response of hT2R14 (increase in intracellular calcium concentration): specifically activate

## OC[C@H]1O[C@@](CO)(O[C@H]2O[C@H](CO)[C@@H](O)[C@H](O)[C@H]2O)[C@@H](O)[C@@H]1O [sucrose]
[1]
  response of HEK-293 cells that express hT2R54: do not respond
  response of hT2R54 (increase in intracellular calcium concentration): do not respond
[2]
  response of HEK-293 cells that express hT2R8: do not respond
  response of hT2R8 (increase in intracellular calcium concentration): do not respond
[3]
  response of HEK-293 cells that express hT2R14: do not respond
  response of hT2R14 (increase in intracellular calcium concentration): do not respond

## O=C(C=Cc1ccc(O)cc1)OC1CC2(O)CC(OC2=O)C1O (stereo not drawn) [3CoQAL]
[1]
  response of hT2R54 (increase in intracellular calcium concentration): responded
[2]
  response of hT2R8 (increase in intracellular calcium concentration): responded
[3]
  response of hT2R14 (increase in intracellular calcium concentration): responded

## O=C(C=Cc1ccc(O)c(O)c1)OC1C(O)CC2(O)CC1OC2=O (stereo not drawn) [4CQAL]
[1]
  response of HEK-293 cells that express hT2R54: specifically respond
[2]
  response of HEK-293 cells that express hT2R8: specifically respond
[3]
  response of HEK-293 cells that express hT2R14: specifically respond
